Where two headings read alike, the source gives them in different places.
Key:
[1] = tested on: MDCK-MOCK cells; test: MTT drug sensitivity assay in MDCK-MOCK cells; format: cell-based, canine
Method: (§1) Cytotoxicity of the platinum-based compounds was measured by MTT (thiazolyl blue tetrazolium bromide) assay. Cells were seeded in 100 μl of the culture medium without any antibiotics in 96-well plates at a predetermined cell density. For HEK 293 cells, poly-D-lysine coated plates were used. After overnight incubation, the platinum-based compounds were then added to the culture medium to give the indicated final concentrations. For the OCT inhibitor studies, the inhibitors (i.e., disopyramide or cimetidine) were added to the medium at a specified concentration immediately before the addition of the platinum-based compounds. After incubation for a specified time period, the drug-containing medium was replaced with fresh, drug-free medium and the incubation was continued for a total of 72 hours (start from the addition of platinum-based compounds). Then, the MTT assay was performed similarly as described in Alley et al., Cancer Res., 48:589-601 (1988). […] The maximal cell growth was the cell growth in the medium without any platinum-based compounds; C is the concentration of the platinum-based compound, and γ is the slope factor.
Briefly, the cells were seeded in 96-well plates at a density of 5,000 cells/well for the transfected MDCK cells or 12,000 cells/well for the transfected HEK 293 cells. The platinum-based drugs were added on the following day. After the specified time periods of drug exposure, the drug-containing medium was replaced with fresh, drug-free medium, and the incubation was continued for a total of 72 hours (start from the time when the drug was added). After incubation, the cell growth was determined by an MTT assay. Data are expressed as mean±SD from 3 to 6 independent experiments with each performed in quadruplicate. The resistance factor (RF) was defined as the ratio of the mean IC50 value in the MOCK cells to that in the OCT-transfected cells.
Briefly, MDCK cells were seeded at a density of 5,000 cells/well in 96-well plates and exposed to the test compounds for 7 hours on the following day. After incubation for a total of 72 hours, the cell growth was determined by an MTT assay. The data for carboplatin was taken from Table 1 and was not determined simultaneously with the other compounds. The resistance factor (RF) was defined as the ratio of the mean IC50 value in MDCK-MOCK cells to that in MDCK-hOCT1 cells. Data are expressed as mean±SD from six measurements, and each measurement was performed in quadruplicate.

[2] = tested on: RKO; test: MTT drug sensitivity, colon cancer cell line RKO; format: cell-based, human
Method: as §1, with “After overnight incubation, the platinum-based compounds were then added to the culture medium to give the indicated final concentrations.” left out
(§2) The cell seeding density was 6,000-, 8,000-, 6,000-, 15,000-12,000- and 4,000 cells/well for HCT116, HT29, RKO, SW620, LS180, and DLD cells, respectively. When cimetidine (1.5 mM) was used, it was added to the wells immediately before the addition of the platinum-based drugs. The resistance factor (RF) was defined as the ratio of the mean IC50 value in the presence to that in the absence of cimetidine. Data are expressed as mean±SD from six measurements, and each measurement was performed in quadruplicate.

[3] = tested on: SW620; test: MTT drug sensitivity, colon cancer cell line SW620; format: cell-based, human
Method: as §1, with “After overnight incubation, the platinum-based compounds were then added to the culture medium to give the indicated final concentrations.” left out
as §2

[4] = tested on: HEK-hOCT2 cells; test: Platinum-DNA adduct formation in HEK-hOCT2 cells; format: cell-based, human; conditions: 2-hr exposure
Method: After incubation at 37° C. and 5% CO2 for 2 hours, the cells were washed with ice-cold PBS three times and harvested. The genomic DNA was isolated from the cells and the platinum content associated with DNA was determined by ICP-MS and normalized for DNA content. Data are expressed as mean±SD from a typical experiment performed in triplicate. Two independent experiments were conducted and similar results were obtained.
The platinum content associated with genomic DNA was determined as described in Samimi et al., Clin. Cancer Res., 10:4661-4669 (2004) with some modifications. Briefly, the cells were grown in 100 mm×20 mm dishes in the culture medium without any antibiotics to over 90% confluence. For HEK 293 cells, poly-D-lysine coated dishes were used. Then, the cells were incubated in the culture medium containing the specified concentrations of the platinum-based compounds at 37° C. in 5% CO2 for 2 hours (or 25 min as specified). In some experiments, phosphate buffer (PB: 1.06 mM KH2PO4, 2.97 mM Na2HPO4, pH 7.4) containing 155 mM NaCl (PB—Cl buffer) or 103 mM Na2SO4 (PB—SO4 buffer) was used instead of the culture medium as specified. For the OCT inhibitor study, the incubation medium (buffer) also contained disopyramide or cimetidine). If PB—Cl or PB—SO4 buffer was used, the cells were washed with the same buffer once before drug incubation. After incubation, the cells were washed with ice-cold PBS, scraped, and pelleted. Genomic DNA was isolated from the cell pellets using the Wizard® Genomic DNA Purification Kit (Promega, Madison, Wis.) following the manufacturer's instructions. Briefly, the cells were lysed with Nuclei Lysis Solution. After RNA digestion and protein precipitation, the lysates were centrifuged and the resulting supernatant was aliquoted. The genomic DNA prepared from two different aliquots of the supernatant was used for platinum and DNA content determination, respectively. For the determination of platinum, the DNA samples were treated with 70% nitric acid at 65° C. and diluted in the same way as described above. The platinum content was analyzed using ICP-MS and the DNA content was measured by absorption spectroscopy.

O=C1[O][Pt]2([NH][C@@H]3CCCC[C@H]3[NH]2)[O]C1=O [oxaliplatin] gave an IC50 ([1]; SAR study Table 4, 7 hours of drug exposure, read-out: IC50 MDCK-MOCK) of 10.9 ± 3.66 µM, an IC50 ([1]; co-incubation with disopyramide 150 μM, read-out: IC50 in MDCK-MOCK, disopyramide-treated) of 32.2 ± 13 µM and an IC50 ([1]; disopyramide study (FIG. 2D), without disopyramide, read-out: IC50 in MDCK-MOCK, control) of 30.4 ± 9.28 µM. For the same compound, the IC50 ([1]; drug exposure 7 hour, MTT at 72 hours, Table 1, read-out: IC50 MDCK-MOCK) was 33 ± 9.12 µM, the IC50 ([1]; drug exposure 24 hour, MTT at 72 hours, Table 1, read-out: IC50 MDCK-MOCK) was 14.3 ± 5.55 µM and the IC50 ([1]; drug exposure 72 hour, Table 1, read-out: IC50 MDCK-MOCK) was 9.64 ± 1.85 µM. It also gave an IC50 ([2]; absence of cimetidine, read-out: IC50 Control) of 1.64 ± 0.56 µM, an IC50 ([2]; cimetidine 1.5 mM, read-out: IC50 Cimetidine-treated) of 9.7 ± 2.7 µM and an IC50 ([3]; SW620, absence of cimetidine, read-out: IC50 Control) of 2.81 ± 1 µM. For the same compound, the IC50 ([3]; SW620, cimetidine 1.5 mM, read-out: IC50 Cimetidine-treated) was 14.2 ± 2.81 µM, the “platinum-DNA adduct level in HEK-hOCT2, cimetidine” value ([4]; cimetidine 1.5 mM) was 0.00216±0.00031 pmol/μg DNA and the “rb in HEK-hOCT2, cimetidine” value ([4]; cimetidine 1.5 mM) was 7.13±1.02×10^−7. The “platinum-DNA adduct level in HEK-hOCT2” value ([4]; oxaliplatin 0.6 μM) was 0.0284±0.0020 pmol/μg DNA and the “rb in HEK-hOCT2” value ([4]; oxaliplatin 0.6 μM) was 9.37±0.66×10^−6.
